Test results published in patent US11254696B2, “Dianilinopyrimidine compound for inhibiting kinase activity” (Shenzhen Targetrx, Inc., priority 2017, dated 2022).

Legend:
ALK F1174C/V = details: Crizotinib-resistant mutation; cited from earlier work
ALK G1202R = ALK G1202R (Homo sapiens, UniProt Q9UM73, G1202R); details: Crizotinib-resistant mutation; cited from earlier work
BaF3 [EML4-ALK] [1] = test: Cytotoxicity test (CellTiter-Glo), BaF3 [EML4-ALK]; assay type: cell-based; details: Ba/F3 cells
Procedure: (§1) The in vitro anti-proliferative activity of the compounds of the present disclosure against three types of cells that are cultured in vitro was tested by CellTiter-Glo method.
(§2) Cell lines: BaF3 parental; BaF3 [EML4-ALK] (From WuXi PharmaTech) and BaF3 [EMF4-AFK F1196M] (From WuXi PharmaTech); wherein, BaF3 parental was cultured in RPMI1640 medium containing 10 ng/ml IL-3, 10% fetal bovine serum, 100 U/ml penicillin, and 100 μg/ml streptomycin, BaF3 [EMF4-AFK] and BaF3 [EMF4-AFK F1196M] were cultured in RPMI1640 medium containing 10% fetal bovine serum, 100 U/ml penicillin, and 100 μg/ml streptomycin.
(§3) Reagents and materials: RPMI-1640 (GIBCO, Cat. No. A10491-01); fetal bovine serum (GIBCO, Cat. No. 10099141); 0.25% trypsin-EDTA (GIBCO, Cat. No. 25200); penicillin-streptomycin, liquid (GIBCO, Cat. No. 15140-122); DMSO (Sigma, Cat. No. D2650); CellTiter-Glo Test Kit (Promega, Cat. No. G7572), and 96-well plate (Corning, Cat. No. 3365).
(§4) 1. The test compounds were dissolved in DMSO to make stock solutions and subjected to a series gradient dilution to give solutions with 10-fold working concentration.
(§5) 2. The cells in the logarithmic growth phase were diluted with the culture solution to adjust to the specific cell concentration, 90 μi of cell suspension was added to the 96-well plate to make the cell density reach the specified concentration. The plate was incubated in a incubator at 37° C., containing 5% carbon dioxide gas overnight.
(§6) 3. 10 μl drug solutions were added to each well of the 96-well plate inoculated with cells. 10 concentrations of the compounds were tested starting from the highest concentration of 20 μM with a 3-fold series gradient dilution in duplicate.
(§7) 4. After continuously cultured for 72 hours, the cells were detected by CellTiter-Glo for the cell viability. The dose-effect curve was made using GraphPad Prism software and IC50 was calculated.

BaF3 [EML4-ALK] [2] = target: T1, BaF3 [EML4-ALK] (Homo sapiens, UniProt Q9UM73); test: Cytotoxicity test (CellTiter-Glo), BaF3 [EML4-ALK]; assay type: cell-based; details: 72 hours, CellTiter-Glo; read-out: IC50(nM) ALK (Ba/F3)
T1 construct: IC50(nM) ALK (Ba/F3); other: 72 hours, CellTiter-Glo; BaF3 [EML4-ALK]; fused on or other part: Q9HC35 (Echinoderm microtubule-associated protein-like 4)
Procedure: as §1, §2, §3, §4, §5, §6, §7

BaF3 parental = test: Cytotoxicity test (CellTiter-Glo), BaF3 parental; assay type: cell-based; details: Mus musculus, 72 hours, read-out: IC50(nM) parental (Ba/F3)
Procedure: as §1, §2, §3, §4, §5, §6, §7

[3] = Metabolic stability in human liver microsomes; assay type: in vitro ADME; details: pH 7.4, 1 μM compound, 0.5 mg/mL protein; for microsomal CLint at 1 μM: read-out: CLint (uL/min/mg), Human liver microsome experiment; for half-life at 1 μM: read-out: t1/2 (min), Human liver microsome experiment
Procedure: (§8) Experiments in microsomes: Human liver microsomes: 0.5 mg/mL, Xenotech; Rat liver microsomes: 0.5 mg/mL, Xenotech; Coenzyme (NADPH/NADH): 1 mM, Sigma Life Science; Magnesium chloride: 5 mM, 100 mM phosphate buffer (pH 7.4).
(§9) Preparation of stock solution: Powder of the example compounds was accurately weighed and dissolved in DMSO to 5 mM. Preparation of phosphate buffer (100 mM, pH7.4): A pre-formulated 0.5M potassium dihydrogen phosphate (150 mL) was mixed with 0.5M dibasic potassium phosphate (700 mL). The pH of the mixture was adjusted to 7.4 with 0.5M dibasic potassium phosphate solution. The mixture was diluted 5-fold with ultrapure water before use, and magnesium chloride was added to obtain a phosphate buffer (100 mM) containing 100 mM potassium phosphate, 3.3 mM magnesium chloride, pH7.4. A NADPH regeneration system solution (containing 6.5 mM NADP, 16.5 mM G-6-P, 3 U/mL G-6-PD, 3.3 mM magnesium chloride) was prepared and placed on wet ice prior to use. Preparation of stop solution: acetonitrile solution containing 50 ng/mL propranolol hydrochloride and 200 ng/mL tolbutamide (internal standard). 25057.5 μL of phosphate buffer (pH 7.4) was taken into a 50 mL centrifuge tube, to which 812.5 μL human liver microsomes were added, and mixed to obtain a liver microsome dilution solution with a protein concentration of 0.625 mg/mL. 25057.5 μL of phosphate buffer (pH 7.4) was taken into a 50 mL centrifuge tube, to which 812.5 μL SD rat liver microsomes were added, and mixed to obtain a liver microsome dilution solution with a protein concentration of 0.625 mg/mL.
(§10) Incubation of the samples: The stock solution of the respective compound was respectively diluted to 0.25 mM with an aqueous solution containing 70% acetonitrile, and used as a working solution, ready for use. 398 μL of the dilution solution of human liver microsomes or rat liver microsome were added to a 96-well incubation plate (N=2), respectively, and 2 μL of 0.25 mM working solution was added and mixed.
(§11) Metabolic stability assay: 300 μL of pre-chilled stop solution was added to each well of a 96-well deep well plate and placed on ice as a stop plate. The 96 well incubation plate and NADPH regeneration system were placed in a 37° C. water bath box, shaken at 100 rpm and pre-incubated for 5 min. 80 μL of incubation solution was taken out from each well of the incubation plate and added to the stop plate, mixed, and replenished with 20 μL of NADPH regeneration system solution as a 0-min sample. 80 μL of NADPH regeneration system solution was added to each well of the incubation plate to start the reaction and start counting. […] Separately, 100 μL of the reaction solution was taken at 10, 30, and 90 min reaction, respectively, added to a stop plate, and vortexed for 3 minutes to terminate the reaction. The stop plate was centrifuged at 5000×g at 4° C. for 4 min. 100 μL of the supernatant was added to a 96-well plate to which 100 μL of distilled water was previously added, mixed, and analyzed by LC-MS/MS.
(§12) Data analysis: The peak areas of the corresponding compound and internal standard were detected by LC-MS/MS system, and the ratio of the peak area of the compound to the internal standard was calculated.

ALK [WT] = ALK [WT] (Homo sapiens, UniProt Q9UM73); test: Kinase inhibition assay, ALK [WT]; assay type: biochemical
Procedure: (§13) Compound preparation: The test compounds were dissolved in DMSO to make 20 mM stock solutions. The compounds were diluted in DMSO to 0.1 mM (a dilution with 100 times the final concentration) before use, and a 3-fold series gradient dilution with 11 concentrations was made. Dilutions with 4 times of the final concentration were prepared by diluting with buffer when dosing.
(§14) Kinase assay: after preparing the buffer solution, the enzyme was mixed with pre-diluted compounds with different concentrations, and placed at room temperature for 30 minutes in duplicate. The corresponding substrate and ATP were added thereto and reacted at room temperature for 60 minutes (both a negative and a positive control were set). After the reaction, antibody was added for detection, and after incubation at room temperature for 60 minutes, Evnvision detection was carried out, and data was collected. Data was analyzed and fit according to XLfit5 software. IC50 was calculated by the following formula: (IC50=[(ABS test−ABS begin)/(ABS control−ABS begin)]×100).

[4] = Metabolic stability in rat liver microsomes; assay type: in vitro ADME; details: SD, pH 7.4, 1 μM compound, 0.5 mg/mL protein; for microsomal CLint at 1 μM: read-out: CLint (uL/min/mg), Rat liver microsome experiment; for half-life at 1 μM: read-out: t1/2 (min), Rat liver microsome experiment
Procedure: as §8, §9, §10, §11, §12

ALK[L1196M] (Ba/F3) [5] = target: T2, ALK[L1196M] (Ba/F3) (Homo sapiens, UniProt Q9UM73, L1196M, cells depend on it); test: Cytotoxicity test (CellTiter-Glo), BaF3 EML4-ALK L1196M; assay type: cell-based; details: 72 hours, CellTiter-Glo; read-out: IC50(nM) ALK[L1196M] (Ba/F3)
T2 construct: IC50(nM) ALK[L1196M]; (Ba/F3); other: 72 hours, CellTiter-Glo; BaF3 [EMF4-AFK F1196M]; fused on or other part: Q9HC35 (Echinoderm microtubule-associated protein-like 4)
Procedure: as §1, §2, §3, §4, §5, §6, §7

ALK[L1196M] (Ba/F3) [6] = test: as above; assay type: cell-based; details: Ba/F3 cells
Procedure: as §1, §2, §3, §4, §5, §6, §7

ALK [L1196M] = ALK [L1196M] (Homo sapiens, UniProt Q9UM73, L1196M); test: Kinase inhibition assay, ALK [L1196M]; assay type: biochemical
Procedure: as §13, §14

T1 sequence (Q9UM73 whole entry, change not shown, the tested form may be a part): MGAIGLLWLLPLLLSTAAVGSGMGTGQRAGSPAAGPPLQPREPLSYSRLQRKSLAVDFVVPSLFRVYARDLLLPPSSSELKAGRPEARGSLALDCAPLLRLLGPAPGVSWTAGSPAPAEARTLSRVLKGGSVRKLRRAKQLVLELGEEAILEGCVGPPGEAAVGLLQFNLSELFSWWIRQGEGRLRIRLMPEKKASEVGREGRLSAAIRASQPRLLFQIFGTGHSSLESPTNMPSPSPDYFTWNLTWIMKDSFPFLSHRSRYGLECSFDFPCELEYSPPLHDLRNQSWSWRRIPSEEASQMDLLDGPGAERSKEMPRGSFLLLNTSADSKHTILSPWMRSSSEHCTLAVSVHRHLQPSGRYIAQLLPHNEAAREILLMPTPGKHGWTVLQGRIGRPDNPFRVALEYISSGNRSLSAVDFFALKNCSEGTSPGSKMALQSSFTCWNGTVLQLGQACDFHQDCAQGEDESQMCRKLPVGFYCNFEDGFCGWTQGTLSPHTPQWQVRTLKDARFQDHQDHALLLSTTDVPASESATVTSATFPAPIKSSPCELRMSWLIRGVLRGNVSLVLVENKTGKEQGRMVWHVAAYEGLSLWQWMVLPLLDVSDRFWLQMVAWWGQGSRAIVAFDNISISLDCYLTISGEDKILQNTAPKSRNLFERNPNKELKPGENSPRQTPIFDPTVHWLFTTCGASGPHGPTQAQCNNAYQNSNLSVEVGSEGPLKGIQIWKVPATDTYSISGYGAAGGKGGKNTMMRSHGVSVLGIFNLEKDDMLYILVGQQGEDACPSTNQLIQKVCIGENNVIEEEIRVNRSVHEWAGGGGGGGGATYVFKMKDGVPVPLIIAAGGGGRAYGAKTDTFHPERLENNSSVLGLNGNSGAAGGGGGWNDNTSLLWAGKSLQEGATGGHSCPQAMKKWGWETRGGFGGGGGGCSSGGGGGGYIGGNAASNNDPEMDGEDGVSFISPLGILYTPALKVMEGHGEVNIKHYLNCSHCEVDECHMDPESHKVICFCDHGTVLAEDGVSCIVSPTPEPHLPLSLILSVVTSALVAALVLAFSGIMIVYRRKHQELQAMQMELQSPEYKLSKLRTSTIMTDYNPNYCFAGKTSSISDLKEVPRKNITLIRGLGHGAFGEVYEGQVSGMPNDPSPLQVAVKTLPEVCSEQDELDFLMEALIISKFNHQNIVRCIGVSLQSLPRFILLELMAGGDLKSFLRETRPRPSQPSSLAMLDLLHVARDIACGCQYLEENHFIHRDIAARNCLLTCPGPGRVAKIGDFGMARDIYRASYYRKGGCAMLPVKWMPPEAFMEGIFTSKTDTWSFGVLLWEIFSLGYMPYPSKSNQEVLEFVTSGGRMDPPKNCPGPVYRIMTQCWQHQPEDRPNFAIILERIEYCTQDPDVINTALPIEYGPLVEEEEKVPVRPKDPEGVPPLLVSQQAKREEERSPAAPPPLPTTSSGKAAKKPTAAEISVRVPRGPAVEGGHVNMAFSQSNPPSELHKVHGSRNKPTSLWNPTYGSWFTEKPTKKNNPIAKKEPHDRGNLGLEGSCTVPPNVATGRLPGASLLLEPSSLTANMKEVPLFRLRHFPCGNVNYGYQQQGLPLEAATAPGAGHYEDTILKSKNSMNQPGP
T2 sequence (Q9UM73 whole entry L1196M, the tested form may be a part): as the sequence (Q9UM73 whole entry, change not shown, the tested form may be a part) above, with L1196M counted along it
ALK [L1196M], sequence (Q9UM73 19-1620 L1196M): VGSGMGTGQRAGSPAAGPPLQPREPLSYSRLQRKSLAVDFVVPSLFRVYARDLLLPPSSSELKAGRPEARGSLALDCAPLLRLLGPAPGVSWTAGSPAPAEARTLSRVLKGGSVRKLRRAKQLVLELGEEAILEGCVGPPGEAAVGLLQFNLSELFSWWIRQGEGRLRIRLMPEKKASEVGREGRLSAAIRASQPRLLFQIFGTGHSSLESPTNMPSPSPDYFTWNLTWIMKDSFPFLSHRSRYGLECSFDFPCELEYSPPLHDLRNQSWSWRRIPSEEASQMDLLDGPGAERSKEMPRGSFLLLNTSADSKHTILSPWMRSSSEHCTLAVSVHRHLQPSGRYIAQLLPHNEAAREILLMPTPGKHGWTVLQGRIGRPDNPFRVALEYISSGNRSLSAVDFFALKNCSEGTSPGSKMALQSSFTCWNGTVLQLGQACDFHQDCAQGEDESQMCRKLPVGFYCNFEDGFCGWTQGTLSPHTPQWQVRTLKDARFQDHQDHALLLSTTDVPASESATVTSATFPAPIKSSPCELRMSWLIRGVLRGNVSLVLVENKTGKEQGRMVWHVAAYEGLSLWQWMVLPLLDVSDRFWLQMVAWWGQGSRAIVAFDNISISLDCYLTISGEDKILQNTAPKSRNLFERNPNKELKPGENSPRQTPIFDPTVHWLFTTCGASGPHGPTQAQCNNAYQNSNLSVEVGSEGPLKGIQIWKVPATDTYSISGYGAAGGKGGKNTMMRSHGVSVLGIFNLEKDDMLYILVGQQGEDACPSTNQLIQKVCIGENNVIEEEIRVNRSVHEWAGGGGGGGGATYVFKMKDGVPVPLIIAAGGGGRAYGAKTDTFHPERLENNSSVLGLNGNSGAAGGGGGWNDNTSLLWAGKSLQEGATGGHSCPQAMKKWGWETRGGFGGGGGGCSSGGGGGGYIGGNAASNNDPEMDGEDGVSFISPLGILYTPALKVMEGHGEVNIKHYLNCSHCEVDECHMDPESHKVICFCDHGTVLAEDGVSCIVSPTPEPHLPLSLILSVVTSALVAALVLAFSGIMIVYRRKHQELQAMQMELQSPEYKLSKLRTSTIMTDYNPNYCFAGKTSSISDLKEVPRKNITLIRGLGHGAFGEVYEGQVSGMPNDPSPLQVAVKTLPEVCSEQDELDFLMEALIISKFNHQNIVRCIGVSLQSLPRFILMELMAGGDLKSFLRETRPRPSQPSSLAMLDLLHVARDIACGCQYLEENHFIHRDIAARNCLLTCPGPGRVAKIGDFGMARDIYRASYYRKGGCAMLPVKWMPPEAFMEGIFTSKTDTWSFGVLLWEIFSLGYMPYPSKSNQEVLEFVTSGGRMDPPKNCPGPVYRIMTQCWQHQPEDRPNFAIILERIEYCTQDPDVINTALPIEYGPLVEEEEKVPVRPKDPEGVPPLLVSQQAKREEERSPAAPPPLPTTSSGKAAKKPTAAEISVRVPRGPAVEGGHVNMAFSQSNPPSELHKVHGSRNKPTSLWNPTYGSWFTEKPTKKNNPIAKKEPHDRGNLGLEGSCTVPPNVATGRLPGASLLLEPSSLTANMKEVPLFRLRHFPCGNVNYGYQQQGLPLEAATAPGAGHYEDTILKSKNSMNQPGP
ALK [WT], sequence (Q9UM73 19-1620): as the sequence (Q9UM73 19-1620 L1196M) above, with M1178L counted along it
ALK G1202R, sequence (Q9UM73 19-1620 G1202R): as the sequence (Q9UM73 19-1620 L1196M) above, with M1178L, G1184R counted along it

Structure (SMILES)	microsomal CLint at 1 μM [3] [µL/min/mg]	half-life at 1 μM [3] [min]	IC50 (ALK [WT]) [nM]	microsomal CLint at 1 μM [4] [µL/min/mg]	half-life at 1 μM [4] [min]	IC50 (ALK [L1196M]) [nM]	effect on F1174C/V (ALK F1174C/V)	effect on G1202R (ALK G1202R)	Selectivity parental/ALK (BaF3 [EML4-ALK] [1])	GI50 (BaF3 [EML4-ALK] [2]) [nM]	IC50 (BaF3 parental) [nM]	GI50 (ALK[L1196M] (Ba/F3) [5]) [nM]	Selectivity parental/ALK[L1196M] (ALK[L1196M] (Ba/F3) [6])
Cc1cc(Nc2ncc(Cl)c(Nc3ccccc3S(=O)(=O)C(C)C)n2)c(OC(C)C)cc1C1CCNCC1 [Ceritinib]	–	–	–	–	–	–	no effect	neither of them has effect	–	–	–	–	–
COc1cc(C(C)CN)ccc1Nc1ncc(Cl)c(Nc2ccccc2P(C)(C)=O)n1 (stereo not drawn) [Example 16, (2-((2-((4-(1-aminopropan-2-yl)-2-methoxyphenyl)amino)-5-chloropyrimidin-4-yl)amino)phenyl)dimethylphosphine oxide]	21.5	64.6	5 to 10	11.7	118	5 to 10	–	–	50 to 100	200 to 1000	≥ 1000	200 to 1000	<50
COc1cc(C(C)CN(C)C)ccc1Nc1ncc(Cl)c(Nc2ccccc2P(C)(C)=O)n1 (stereo not drawn) [Example 17, (2-((5-chloro-2-((4-(1-(dimethylamino)propan-2-yl)-2-methoxyphenyl)amino)pyrimidin-4-yl)amino)phenyl)dimethylphosphine oxide]	18.6	74.3	5 to 10	29.7	46.7	5 to 10	–	–	100 to 200	25 to 50	≥ 1000	100 to 200	50 to 100

Now from value to compound, other results behind:

microsomal CLint at 1 μM [3] [µL/min/mg]	half-life at 1 μM [3] [min]	IC50 (ALK [WT]) [nM]	microsomal CLint at 1 μM [4] [µL/min/mg]	half-life at 1 μM [4] [min]	IC50 (ALK [L1196M]) [nM]	Structure (SMILES)	effect on F1174C/V (ALK F1174C/V)	effect on G1202R (ALK G1202R)	Selectivity parental/ALK (BaF3 [EML4-ALK] [1])	GI50 (BaF3 [EML4-ALK] [2]) [nM]	IC50 (BaF3 parental) [nM]	GI50 (ALK[L1196M] (Ba/F3) [5]) [nM]	Selectivity parental/ALK[L1196M] (ALK[L1196M] (Ba/F3) [6])
20.7	66.9	≤ 2	17.6	78.8	≤ 2	CNC(C)(C)c1ccc(Nc2ncc(Cl)c(Nc3ccccc3P(C)(C)=O)n2)c(OC)c1 [Example 15, (2-((5-chloro-2-((2-methoxy-4-(2-(methylamino)propan-2-yl)phenyl)amino)pyrimidin-4-yl)amino)phenyl)dimethylphosphine oxide]	–	–	<50	50 to 100	≥ 1000	100 to 200	<50
5.4	259	2 to 5	32.3	42.9	2 to 5	COc1cc(CCN(C)C)c(C)cc1Nc1ncc(Cl)c(Nc2ccccc2P(C)(C)=O)n1 [Example 20, (2-((5-chloro-2-((4-(2-(dimethylamino)ethyl)-2-methoxy-5-methylphenyl)amino)pyrimidin-4-yl)amino)phenyl)dimethylphosphine oxide]	–	–	50 to 100	25 to 50	≥ 1000	25 to 50	50 to 100
27.7	50	2 to 5	7.2	193	5 to 10	CNCCc1cc(OC)c(Nc2ncc(Cl)c(Nc3ccccc3P(C)(C)=O)n2)cc1C [Example 21, (2-((5-chloro-2-((2-methoxy-5-methyl-4-(2-(methylamino)ethyl)phenyl)amino)pyrimidin-4-yl)amino)phenyl)dimethylphosphine oxide]	–	–	<50	100 to 200	≥ 1000	200 to 1000	<50
